In general, GI50 refers to the concentration giving 50% growth inhibition. One may read the MIC as the smallest concentration in the dilution series that meets the test's criterion for growth inhibition. Read a high MIC as weaker potency.

Values after ≈ are worked out from the molar mass of the structure shown.

The source of these data is ChEMBL document CHEMBL4342421, “Current scenario of tetrazole hybrids for antibacterial activity” (Eur J Med Chem, 2019).

One test concerns MDA-MB-231. Nature of the test: Growth inhibition of human MDA-MB-231 cells. The class given is functional.
The test system of the next test is Priestia megaterium. As to the kind of experiment: Antimicrobial activity against Bacillus megaterium. The class given is functional.
Another test concerns PANC-1. As to the kind of experiment: Growth inhibition of human PANC1 cells. The class given is functional.
The test system of test [1] is Bacillus subtilis. Nature of the test: Antimicrobial activity against Bacillus subtilis. The class given is functional.
The subject of a further test is SiHa. Nature of the test: Growth inhibition of human SiHa cells. The class given is functional.
For test [2], the system named is Escherichia coli. Nature of the test: Antimicrobial activity against Escherichia coli. In kind it is functional.
The subject of another test is Micrococcus luteus. Nature of the test: Antibacterial activity against Micrococcus luteus. In kind it is functional.
For a further test, the system named is Salmonella typhimurium. As to the kind of experiment: Antimicrobial activity against Salmonella typhimurium. In kind it is functional, Salmonella enterica subsp. enterica serovar Typhimurium. Particulars: Salmonella enterica.
Test [3] concerns Candida albicans. Nature of the test: Antifungal activity against Candida albicans MTCC 277 after 48 hrs by NCCLS protocol based method. The class given is functional. Particulars: MTCC 277, 48 h.
Test [4] deals with Aspergillus niger. Nature of the test: Antifungal activity against Aspergillus niger NCIM 545 after 48 hrs by NCCLS protocol based method. In kind it is functional. Particulars: NCIM 545, 48 h.
Test [5] concerns Escherichia coli. As to the kind of experiment: Antimicrobial activity against Escherichia coli ATCC 25922 after 48 hrs by NCCLS protocol based method. In kind it is functional. Particulars: ATCC 25922, 48 h.
For test [6], the system named is Bacillus subtilis. As to the kind of experiment: Antimicrobial activity against Bacillus subtilis NCIM 2250 after 48 hrs by NCCLS protocol based method. In kind it is functional. Particulars: NCIM 2250, 48 h.
For test [7], the system named is Candida albicans. Nature of the test: Antifungal activity against Candida albicans assessed as zone of inhibition at 50 ug/ml. The class given is functional. Particulars: read-out: IZ.
Test [8] concerns Staphylococcus aureus. As to the kind of experiment: Antimicrobial activity against Staphylococcus aureus assessed as zone of inhibition at 50 ug/ml. Particulars: read-out: IZ. In kind it is functional.
For test [9], the system named is Aspergillus niger. Nature of the test: Antifungal activity against Aspergillus niger assessed as zone of inhibition at 50 ug/ml. The class given is functional. Particulars: read-out: IZ.
Test [10] relates to Escherichia coli. As to the kind of experiment: Antimicrobial activity against Escherichia coli assessed as zone of inhibition at 50 ug/ml. The class given is functional. Particulars: read-out: IZ.
For test [11], the system named is Staphylococcus aureus. Nature of the test: Antimicrobial activity against Staphylococcus aureus. In kind it is functional.
The next test deals with Pseudomonas aeruginosa. As to the kind of experiment: Antimicrobial activity against Pseudomonas aeruginosa. The class given is functional.
In test [12] the test system is Aspergillus niger. As to the kind of experiment: Antifungal activity against Aspergillus niger. In kind it is functional.
In test [13] the test system is Candida albicans. As to the kind of experiment: Antifungal activity against Candida albicans. In kind it is functional.
The next test relates to Nakaseomyces glabratus. As to the kind of experiment: Antifungal activity against Candida glabrata. In kind it is functional.
A further test has as its system Candida tropicalis. Nature of the test: Antifungal activity against Candida tropicalis. In kind it is functional.

In the case of `O=C(O)c1cn(C2CC2)c2cc(N3CCN(C(=O)CCSc4nnnn4Cc4ccccc4)CC3)c(F)cc2c1=O`, the GI50 with MDA-MB-231, with PANC-1 and in the test on SiHa was at most 1 µM each time. In addition, the MIC in the test with Priestia megaterium, against Bacillus subtilis [1], in the test on Escherichia coli [2], against Micrococcus luteus and in the test with Salmonella typhimurium was 15.6 µg/mL (≈ 27 µM) each time.

Regarding `CCOC(=O)C(C#N)C(c1cc2ccc(OC)cc2n2nnnc12)P(=O)(OCC)OCC` (stereo unspecified), the minimum inhibitory concentration (MIC) against Candida albicans [3], with Aspergillus niger [4], in the test on Escherichia coli [5] and with Bacillus subtilis [6] was 10 µg/mL (≈ 21.7 µM) each time.

Regarding `O=C(O)c1cn(C2CC2)c2cc(N3CCN(C(=O)CCSc4nnnn4-c4ccc(C(F)(F)F)cc4)CC3)c(F)cc2c1=O`, the 50% growth inhibitory concentration (GI50) in the test on MDA-MB-231, with PANC-1 and with SiHa was at most 1 µM throughout. Also, the MIC against Priestia megaterium, against Bacillus subtilis [1], in the test on Escherichia coli [2], in the test on Micrococcus luteus and in the test with Salmonella typhimurium was 15.6 µg/mL (≈ 24.7 µM) in each case.

For `O=C(O)c1cn(C2CC2)c2cc(N3CCN(C(=O)CCSc4nnnn4-c4ccccc4)CC3)c(F)cc2c1=O`, the 50% growth inhibitory concentration (GI50) in the test on MDA-MB-231, with PANC-1 and in the test on SiHa was at most 1 µM throughout. Besides, the MIC against Priestia megaterium, in the test on Bacillus subtilis [1], in the test on Escherichia coli [2], in the test with Micrococcus luteus and against Salmonella typhimurium was 15.6 µg/mL (≈ 27.7 µM) throughout.

With `CCOC(=O)C(C#N)C(c1cc2cc(C)ccc2n2nnnc12)P(=O)(OCC)OCC` (stereo unspecified), the minimal inhibitory concentration (MIC) with Candida albicans [3], in the test with Aspergillus niger [4], against Escherichia coli [5] and against Bacillus subtilis [6] was 10 to 20 µg/mL (≈ 22.5 to 44.9 µM) throughout.

For `CCOC(=O)C(C#N)C(c1cc2ccc(CC)cc2n2nnnc12)P(=O)(OCC)OCC` (stereo unspecified), the minimum inhibitory concentration (MIC) against Candida albicans [3], with Aspergillus niger [4], in the test with Escherichia coli [5] and against Bacillus subtilis [6] was 10 to 20 µg/mL (≈ 21.8 to 43.5 µM) each time.

For `O=C(O)c1cn(C2CC2)c2cc(N3CCN(C(=O)CCSc4nnnn4-c4ccc(Br)cc4)CC3)c(F)cc2c1=O`, the GI50 in the test on MDA-MB-231, in the test on PANC-1 and with SiHa was at most 1 µM throughout. The MIC in the test on Priestia megaterium, with Bacillus subtilis [1], in the test on Escherichia coli [2], in the test on Micrococcus luteus and against Salmonella typhimurium was 15.6 µg/mL (≈ 24.3 µM) in each case.

Turning to `CCOC(=O)C(C#N)C(c1cc2cc(OC)ccc2n2nnnc12)P(=O)(OCC)OCC` (stereo unspecified), the MIC in the test with Candida albicans [3], against Aspergillus niger [4], in the test with Escherichia coli [5] and with Bacillus subtilis [6] was 10 to 20 µg/mL (≈ 21.7 to 43.3 µM) in each case.

As for `CN(C)c1ccc(/C=C/C(=O)n2nnnc2-c2ccccc2)cc1`, the zone of inhibition at 50 µg/mL with Candida albicans [7], in the test on Staphylococcus aureus [8], with Aspergillus niger [9] and with Escherichia coli [10] was 8 to 15 mm each time.

On to `CCOC(=O)C(C#N)C(c1cc2c(OCC)cccc2n2nnnc12)P(=O)(OCC)OCC` (stereo unspecified), for which the MIC against Candida albicans [3], against Aspergillus niger [4], against Escherichia coli [5] and against Bacillus subtilis [6] was 10 to 20 µg/mL (≈ 21 to 42.1 µM) throughout.

As for `O=C(/C=C/c1ccccc1[N+](=O)[O-])n1nnnc1-c1ccccc1`, the zone of inhibition at 50 µg/mL in the test with Candida albicans [7], in the test on Staphylococcus aureus [8], in the test with Aspergillus niger [9] and in the test on Escherichia coli [10] was 8 to 15 mm in each case.

For `O=C(O)c1cn(C2CC2)c2cc(N3CCNCC3)c(F)cc2c1=O` [CIPROFLOXACIN], the MIC against Priestia megaterium, against Staphylococcus aureus [11], in the test with Pseudomonas aeruginosa, in the test on Aspergillus niger [12], against Candida albicans [13] and against Escherichia coli [2] was 25 to 50 µg/mL (≈ 75.4 to 151 µM) in each case. Also, the minimum inhibitory concentration (MIC) in the test with Micrococcus luteus and in the test on Salmonella typhimurium was 25 to 50 µg/mL (≈ 75.4 to 151 µM) throughout. The zone of inhibition at 50 µg/mL in the test on Candida albicans [7], in the test with Staphylococcus aureus [8], with Aspergillus niger [9] and in the test on Escherichia coli [10] was 19 to 20 mm throughout.

In the case of `COC1=CC(=O)C[C@@H](C)[C@]12Oc1c(Cl)c(OC)cc(OC)c1C2=O` [GRISEOFULVIN], the zone of inhibition at 50 µg/mL in the test on Candida albicans [7], in the test on Staphylococcus aureus [8], with Aspergillus niger [9] and in the test on Escherichia coli [10] was 21 to 24 mm in each case. Moreover, the minimum inhibitory concentration (MIC) against Candida albicans [3], with Aspergillus niger [4], against Escherichia coli [5] and against Bacillus subtilis [6] was 10 µg/mL (≈ 28.3 µM) each time.

As for `Clc1ccc(COC(Cn2ccnc2)c2ccc(Cl)cc2Cl)c(Cl)c1` (stereo unspecified) [MICONAZOLE], the minimum inhibitory concentration (MIC) against Nakaseomyces glabratus, against Candida albicans [13] and in the test with Candida tropicalis was 12.5 to 800 µg/mL (≈ 30 to 1920 µM) throughout.

With `CCn1cc(C(=O)O)c(=O)c2cnc(N3CCNCC3)nc21` [PIPEMIDIC ACID], the MIC in the test on Priestia megaterium, in the test on Bacillus subtilis [1], in the test with Escherichia coli [2], in the test with Micrococcus luteus and in the test with Salmonella typhimurium was 31.2 µg/mL (≈ 103 µM) each time.

For `CC/C(=C(\c1ccccc1)c1ccc(OCCN(C)C)cc1)c1ccccc1` [TAMOXIFEN], the GI50 with MDA-MB-231, in the test on PANC-1 and in the test on SiHa was 0.12 to 0.24 µM each time.
